Data as given in patent US8664271B2, “Stabilized leukotriene B4 (LTB4) agent pharmaceutical formulation” (LTB4 Sweden AB, priority 2004, dated 2014).

Experiments:
[1] = Stability of aqueous LTB4 Na salt solution at pH 7.4 with or without EDTA (HPLC impurities); assay type: physicochemical; details: aqueous solution 5 mg/ml
Protocol: LTB4 (acid form) was obtained from Cascade Biochem (U.K.) in solution in ethanol/water, 95/5. The purity level of this starting material was about 98.5% (+0.3%) as assessed by reverse phase HPLC. The ethanolic LTB4 solution was neutralized with an equivalent of sodium hydroxide to obtain LTB4 sodium (Na) salt. The ethanolic solution of LTB4 Na salt was evaporated to dryness under reduced pressure using a rotoevaporator and a water bath (30° C.), until an oily residue is obtained. The residue was redisolved in Dulbeccos' phosphate buffered saline (DPBS) at pH 7.4 containing or not, 0.01% ethylenediaminetetraacetic acid (EDTA) to obtain a final concentration of 5 mg LTB4/ml. Solutions were dispensed in 2 ml type I borosilicate glass vials which were then sealed under argon using Teflon-lined rubber stoppers and aluminium caps. The samples were stored in the dark at 25±5° C. until analysis at the indicated time points. Analysis of LTB4 solutions was carried out by reverse phase HPLC using a C18, 5μ particle, 4.7X250 mm column (Nucleosil) and methanol/acetronitrile gradient elution; detection of LTB4 and impurities was performed on line using an HPLC UV spectrophotometer at 270 nm.

[2] = Forced degradation of aqueous LTB4 sodium salt solutions at increasing sodium hydroxide concentrations; assay type: physicochemical; details: for impurity level: five weeks at 40° C.; for pH after five weeks of storage / final pH (after five weeks): 40° C.
Protocol: An ethanolic solution of LTB4 (acid form) obtained from Cascade Biochem (UK) was neutralized by the addition of 1 equivalent of sodium hydroxide to generate LTB4 sodium salt. Aliquots of the ethanolic solution of the sodium salt of LTB4 were dispensed into 2-ml vials (to obtain 2 mg of LTB4 per vial) and the solvent was evaporated to dryness under a stream of nitrogen. The residues in vials were dissolved with 0.9% sodium chloride (NaCl) (vial 1), 0.9% NaCl in 0.1 mN NaOH (vial 2), 0.9% NaCl in 1 mN NaOH (vial 3), 0.9% NaCl in 10 mN NaOH (vial 4), 0.3% NaCl in 0.1N NaOH (vial 5) and in 1N NaOH (vial 6). Aliquots of the solutions were taken for immediate analysis (to) and the remaining solutions of LTB4 sodium salt at 2 mg/ml were stored under air, in the dark at 40±5° C. for five weeks, prior to reverse phase HPLC analysis of LTB4 and impurities as described in example 1.

impurity level ([1]; DPBS pH 7.4, 0.01% EDTA, 60 days of storage at 25° C.): 2.9%
impurity level ([1]; DPBS pH 7.4, 0.01% EDTA, 90 days of storage at 25° C.): 8.6%
degradation ([1]; DPBS pH 7.4, 0.01% EDTA, up to 14 days of storage at 25° C.): no increase of degradation
level of impurities ([1]; DPBS pH 7.4, no EDTA, 7 days of storage at 25° C.): increased level of impurities
impurity level ([1]; DPBS pH 7.4, no EDTA, 14 days of storage at 25° C.): 23.3 % of LTB4 peak area
impurity level ([2]; vial 1: 2 mg/ml in 0.9% NaCl): 100%
pH after five weeks of storage ([2]; vial 1: 0.9% NaCl): < 5
impurity level ([2]; vial 2: 2 mg/ml in 0.9% NaCl in 0.1 mN NaOH): 100%
pH after five weeks of storage ([2]; vial 2: 0.9% NaCl in 0.1 mN NaOH): < 5
impurity level ([2]; vial 3: 2 mg/ml in 0.9% NaCl in 1 mN NaOH): 5.34 % of AUC 270 nm
final pH (after five weeks) ([2]; vial 3: 0.9% NaCl in 1 mN NaOH): 8.02
impurity level ([2]; vial 4: 2 mg/ml in 0.9% NaCl in 10 mN NaOH): 3.46 % of AUC 270 nm
final pH (after five weeks) ([2]; vial 4: 0.9% NaCl in 10 mN NaOH): 9.83
impurity level ([2]; vial 5: 2 mg/ml in 0.3% NaCl in 0.1N NaOH): 4.38 % of AUC 270 nm
final pH (after five weeks) ([2]; vial 5: 0.3% NaCl in 0.1N NaOH): 12.50
impurity level ([2]; vial 6: 2 mg/ml in 1N NaOH): 5.77 % of AUC 270 nm
final pH (after five weeks) ([2]; vial 6: 1N NaOH): 13.03
SMILES: CCCCC/C=C\C[C@@H](O)/C=C/C=C/C=C\[C@@H](O)CCCC(=O)[O-].[Na+] [LTB4 Na salt]
